Test results from ChEMBL document CHEMBL1201862, “PubChem BioAssay data set” (2004).
Active and inactive are the calls of the source.

How the values were obtained:
[1] = A Cell-Based Confirmatory Screen for Compounds that Inhibit VEEV TC-83 (4).; type: functional
[2] = A Cell-Based Confirmatory Screen for Compounds that Inhibit VEEV, TC-83 (5).; type: functional
[3] = A Cell-Based Confirmatory Screen for Compounds that Inhibit VEEV, TC-83 (3).; type: functional
[4] = biological target: Muscarinic acetylcholine receptor M5 (Homo sapiens, UniProt P08912); assay: inhibition of ACh-evoked human M5 signalling – cell-based, CHO-K1 hM5, Fluo-4 calcium flux, ACh EC80, dose response (AID 743110); type: functional
[5] = biological target: Muscarinic acetylcholine receptor M5 (Rattus norvegicus, UniProt P08911); assay: Discovery of Novel Antagonists of Muscarinic Receptor M5: Counterscreen against RAT M5.; type: functional
[6] = Plasmodium falciparum Dd2 Sybr green parasite growth Measured in Cell-Based and Microorganism Combination System Using Plate Reader - 2153-01_Inhibitor_Dose_DryPowder_Activity_Set3.; type: functional
[7] = growth inhibition of yeast DHODH-expressing 3D7 parasites – SYBR Green, dry powder samples, dose response (AID 1159570); type: functional, cell-based;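 also: parasite growth measured after 72 hours of compound exposure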
[8] = Dd2 malaria parasite growth inhibition potency – SYBR Green, dry powder samples, dose response (AID 1159566); type: functional, cell-based;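 also: potency for growth inhibition with lower SYBR green DNA signal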
[9] = growth inhibition of PfATP4-mutant resistant parasites – NITD609-resistant line, SYBR Green, dry powder, dose response (AID 1159571); type: functional, cell-based;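 also: parasites synchronized at ring stage by sorbitol before testing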
[10] = P. falciparum Dd2 growth inhibitors, dose response, SYBR Green, cherry-picked samples (AID 1159567); type: functional, cell-based
[11] = HCT116 cell viability decrease, GSK3B pretreatment – CellTiter-Glo, IC50, dose response (AID 1117339); type: functional; settings: HCT-116
[12] = cytotoxicity toward HCT116 cells – cell-based, CellTiter-Glo luminescence, IC50, dose response (AID 1117332); type: functional; settings: HCT-116
[13] = cytotoxicity toward Colo320 cells – cell-based, CellTiter-Glo luminescence, IC50, dose response (AID 1117334); type: functional; settings: COLO 320
[14] = RKO cell viability reduction, dose response, CellTiter-Glo luminescence (AID 1117322); type: functional
[15] = SNU-C1 cell viability reduction, dose response, CellTiter-Glo luminescence (AID 1117323); type: functional, cell-based
[16] = Reduced DLD-1 viability, concentration-response, CellTiter-Glo luminescence (AID 1117352); type: functional
[17] = CellTiter-Glo luminescence survival assay, SW480 colon tumor line, concentration-response curve, half-maximal inhibitory concentration (AID 1117338); type: functional
[18] = biological target: G-protein coupled receptor 183 (Homo sapiens, UniProt P32249); assay: SAR confirmation of small molecule antagonists of the EBI2 receptor via a luminescent beta-arrestin assa.; type: functional
[19] = antifungal activity, alamar blue, dry powder, counter-screen for C. neoformans cell wall antifungals, dose response (AID 743128); type: functional, organism-based
cells = settings: HEK293
[20] = toxicity to HepG2 liver cells – cell-based, plate reader, dry powder, set 6, cytotoxicity control, dose response (AID 743311); type: functional
[21] = biological target: Metabotropic glutamate receptor 7 (Homo sapiens, UniProt Q14831); assay: potentiation of glutamate EC20 at mGlu7 – cell-based, calcium mobilization, Galpha15, dose response (AID 743384); type: functional
[22] = loss of HEK293T viability via ATP – cell-based, plate reader, dry powder, set 10, cytotoxicity control, dose response (AID 743315); type: functional; settings: HEK293
[23] = toxicity to A549 lung cells – cell-based, plate reader, dry powder, set 6, cytotoxicity control, dose response (AID 743312); type: functional
[24] = biological target: Voltage-gated inwardly rectifying potassium channel KCNH2 (Homo sapiens, UniProt Q12809); settings: Potency;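 also: confirmatory quantitative high-throughput screen measuring inhibition of hERG channel activity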
[25] = tested on: Streptococcus sp. 'group A'; assay: Streptococcus pyogenes SK(-)GAS viability under kanamycin – luminescence, BacTiterGlo, confirmation, counter-screen for streptokinase expression inhibitor project, dose response (AID 1900); type: functional, organism-based; settings: Streptococcus sp. 'group A'
Streptococcus = assay: GAS UMAA2166 growth inhibition – luminescence, BacTiterGlo, counter-screen for streptokinase expression inhibitor project, dose response (AID 1915); type: functional, organism-based; settings: Streptococcus;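 also: potency for reduction of bacterial viability or growth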
Cytochrome P450 2C19 [26] = biological target: T1, Cytochrome P450 2C19 (Homo sapiens, UniProt P33261); assay: Cytochrome panel assay with activity outcomes. Panel member name: p450-cyp2c19 Compounds with AC50 equal or less than 10 uM are considered active; type: functional; settings: read-out: AC50
Streptokinase A = biological target: T2, Streptokinase A (Streptococcus pyogenes serotype M1, UniProt P10520); assay: viability-normalized secreted streptokinase activity reduction – plasminogen activation absorbance, OD405, dose response (AID 1914); type: functional, Streptococcus pyogenes M1 GAS;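 also: secreted streptokinase activity via plasminogen activation per viability signal from cell pellet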
T2 sequence (P10520 whole entry): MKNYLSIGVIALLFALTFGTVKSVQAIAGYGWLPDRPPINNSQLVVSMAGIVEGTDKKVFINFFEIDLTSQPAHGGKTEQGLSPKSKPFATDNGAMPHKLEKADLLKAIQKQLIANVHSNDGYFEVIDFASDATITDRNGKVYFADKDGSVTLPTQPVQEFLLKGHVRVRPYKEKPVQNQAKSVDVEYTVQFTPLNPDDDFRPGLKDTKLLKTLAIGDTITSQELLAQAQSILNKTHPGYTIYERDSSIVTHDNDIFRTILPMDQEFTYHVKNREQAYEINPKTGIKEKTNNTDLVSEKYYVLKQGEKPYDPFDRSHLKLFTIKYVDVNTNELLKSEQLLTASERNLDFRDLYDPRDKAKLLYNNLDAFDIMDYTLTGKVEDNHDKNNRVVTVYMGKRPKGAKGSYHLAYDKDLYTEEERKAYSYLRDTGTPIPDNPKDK

Cytochrome P450 3A4 [27] = biological target: T3, Cytochrome P450 3A4 (Homo sapiens, UniProt P08684)
Cytochrome P450 2C19 [28] = biological target: T1, Cytochrome P450 2C19; assay: qHTS Assay for Inhibitors and Substrates of Cytochrome P450 2C19. [Related pubchem assays: 410 ]; type: ADME; settings: read-out: Potency
Cytochrome P450 3A4 [29] = biological target: T3, Cytochrome P450 3A4; settings: Potency

T3 sequence (P08684 whole entry): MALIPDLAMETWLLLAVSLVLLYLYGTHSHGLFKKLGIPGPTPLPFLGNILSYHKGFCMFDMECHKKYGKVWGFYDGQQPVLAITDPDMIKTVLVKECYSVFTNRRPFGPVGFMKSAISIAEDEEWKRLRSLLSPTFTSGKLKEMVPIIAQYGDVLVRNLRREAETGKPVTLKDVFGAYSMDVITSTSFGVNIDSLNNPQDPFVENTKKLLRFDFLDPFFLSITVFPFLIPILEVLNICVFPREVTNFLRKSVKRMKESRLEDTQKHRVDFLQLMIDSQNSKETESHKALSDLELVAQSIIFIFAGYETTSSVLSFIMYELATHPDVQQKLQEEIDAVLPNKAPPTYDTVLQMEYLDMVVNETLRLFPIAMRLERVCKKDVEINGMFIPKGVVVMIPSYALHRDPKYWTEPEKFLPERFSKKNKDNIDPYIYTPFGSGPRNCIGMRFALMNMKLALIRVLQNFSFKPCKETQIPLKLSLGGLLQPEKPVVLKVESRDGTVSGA
T1 sequence (P33261 whole entry): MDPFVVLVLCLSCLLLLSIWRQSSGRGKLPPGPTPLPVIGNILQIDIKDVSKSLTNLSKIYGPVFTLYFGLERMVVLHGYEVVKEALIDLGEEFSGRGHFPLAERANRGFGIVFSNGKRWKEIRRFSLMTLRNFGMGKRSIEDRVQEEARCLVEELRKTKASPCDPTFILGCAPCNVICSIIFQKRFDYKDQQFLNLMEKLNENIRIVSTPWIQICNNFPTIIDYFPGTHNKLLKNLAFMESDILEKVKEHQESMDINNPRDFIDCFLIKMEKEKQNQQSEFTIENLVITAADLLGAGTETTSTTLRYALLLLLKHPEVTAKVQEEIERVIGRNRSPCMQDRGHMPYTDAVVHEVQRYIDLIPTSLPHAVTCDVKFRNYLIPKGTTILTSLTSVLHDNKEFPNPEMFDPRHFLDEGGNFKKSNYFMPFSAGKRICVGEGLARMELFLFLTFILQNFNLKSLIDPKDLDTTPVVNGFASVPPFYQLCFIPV
Chain of Muscarinic acetylcholine receptor M5 (Homo sapiens, UniProt P08912) (P08912 whole entry): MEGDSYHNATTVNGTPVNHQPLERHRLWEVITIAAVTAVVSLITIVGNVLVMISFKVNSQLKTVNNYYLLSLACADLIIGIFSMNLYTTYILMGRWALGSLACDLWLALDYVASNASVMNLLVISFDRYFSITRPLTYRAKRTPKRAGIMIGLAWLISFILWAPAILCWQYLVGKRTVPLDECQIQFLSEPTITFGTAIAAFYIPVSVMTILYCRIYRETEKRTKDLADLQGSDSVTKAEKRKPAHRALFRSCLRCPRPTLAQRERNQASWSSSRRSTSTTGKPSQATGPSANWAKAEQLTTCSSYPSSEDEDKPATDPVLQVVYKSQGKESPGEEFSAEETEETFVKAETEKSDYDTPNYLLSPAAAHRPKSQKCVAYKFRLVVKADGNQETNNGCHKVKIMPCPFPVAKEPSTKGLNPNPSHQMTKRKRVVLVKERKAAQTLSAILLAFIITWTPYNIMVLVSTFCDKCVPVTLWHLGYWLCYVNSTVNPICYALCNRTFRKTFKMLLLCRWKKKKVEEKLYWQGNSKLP
Chain of Muscarinic acetylcholine receptor M5 (Rattus norvegicus, UniProt P08911) (P08911 whole entry): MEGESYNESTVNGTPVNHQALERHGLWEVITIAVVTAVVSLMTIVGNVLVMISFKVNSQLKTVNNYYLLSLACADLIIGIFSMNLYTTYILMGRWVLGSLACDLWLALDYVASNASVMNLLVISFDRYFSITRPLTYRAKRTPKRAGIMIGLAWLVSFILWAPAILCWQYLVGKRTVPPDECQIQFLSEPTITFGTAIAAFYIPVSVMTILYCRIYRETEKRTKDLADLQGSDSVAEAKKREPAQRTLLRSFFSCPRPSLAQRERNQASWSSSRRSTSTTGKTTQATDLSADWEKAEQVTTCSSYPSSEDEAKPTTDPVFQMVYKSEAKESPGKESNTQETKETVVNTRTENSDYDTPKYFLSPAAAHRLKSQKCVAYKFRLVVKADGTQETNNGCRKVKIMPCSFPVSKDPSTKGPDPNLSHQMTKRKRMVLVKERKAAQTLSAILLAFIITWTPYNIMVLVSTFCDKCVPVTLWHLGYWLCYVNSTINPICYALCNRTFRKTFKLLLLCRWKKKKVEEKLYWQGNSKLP
Chain of G-protein coupled receptor 183 (P32249 whole entry): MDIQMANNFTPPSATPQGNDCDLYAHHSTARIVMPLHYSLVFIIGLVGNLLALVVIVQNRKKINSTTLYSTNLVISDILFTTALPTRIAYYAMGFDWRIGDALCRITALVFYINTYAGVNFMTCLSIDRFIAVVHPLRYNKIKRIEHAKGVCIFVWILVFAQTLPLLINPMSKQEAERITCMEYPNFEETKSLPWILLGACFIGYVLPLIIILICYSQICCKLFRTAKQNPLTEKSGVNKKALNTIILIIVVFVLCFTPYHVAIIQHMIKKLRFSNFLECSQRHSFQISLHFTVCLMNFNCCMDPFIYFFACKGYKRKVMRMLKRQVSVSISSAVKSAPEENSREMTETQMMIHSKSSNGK
Chain of Voltage-gated inwardly rectifying potassium channel KCNH2 (Q12809 whole entry): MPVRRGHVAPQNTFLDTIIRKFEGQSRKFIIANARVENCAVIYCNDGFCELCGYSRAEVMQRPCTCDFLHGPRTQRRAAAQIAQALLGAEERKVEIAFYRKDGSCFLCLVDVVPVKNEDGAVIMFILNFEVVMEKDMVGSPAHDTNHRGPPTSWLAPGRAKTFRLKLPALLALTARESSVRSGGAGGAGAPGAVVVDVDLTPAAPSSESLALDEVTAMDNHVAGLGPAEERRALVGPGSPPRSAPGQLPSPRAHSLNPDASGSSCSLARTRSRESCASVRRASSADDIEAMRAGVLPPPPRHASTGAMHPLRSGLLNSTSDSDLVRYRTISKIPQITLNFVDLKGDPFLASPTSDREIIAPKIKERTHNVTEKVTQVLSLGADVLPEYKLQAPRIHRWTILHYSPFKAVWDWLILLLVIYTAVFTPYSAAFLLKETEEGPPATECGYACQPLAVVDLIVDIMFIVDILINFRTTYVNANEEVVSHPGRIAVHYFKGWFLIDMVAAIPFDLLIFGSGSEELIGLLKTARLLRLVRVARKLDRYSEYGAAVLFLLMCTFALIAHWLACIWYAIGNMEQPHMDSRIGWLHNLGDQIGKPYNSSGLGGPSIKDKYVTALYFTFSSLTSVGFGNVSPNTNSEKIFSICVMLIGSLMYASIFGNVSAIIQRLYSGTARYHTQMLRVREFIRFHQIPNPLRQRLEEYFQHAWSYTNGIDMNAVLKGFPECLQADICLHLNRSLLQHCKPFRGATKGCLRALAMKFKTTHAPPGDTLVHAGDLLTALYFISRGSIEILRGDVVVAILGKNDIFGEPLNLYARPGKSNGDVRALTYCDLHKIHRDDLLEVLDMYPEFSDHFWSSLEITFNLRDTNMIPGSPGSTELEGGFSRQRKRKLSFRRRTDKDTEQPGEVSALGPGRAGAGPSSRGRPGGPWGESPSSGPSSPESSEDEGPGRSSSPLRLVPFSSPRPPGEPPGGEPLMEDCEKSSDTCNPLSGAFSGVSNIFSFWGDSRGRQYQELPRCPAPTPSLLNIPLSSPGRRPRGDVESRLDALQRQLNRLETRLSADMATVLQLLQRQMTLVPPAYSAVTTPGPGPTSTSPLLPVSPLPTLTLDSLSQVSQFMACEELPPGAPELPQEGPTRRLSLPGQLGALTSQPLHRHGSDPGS
Chain of Metabotropic glutamate receptor 7 (Q14831 whole entry): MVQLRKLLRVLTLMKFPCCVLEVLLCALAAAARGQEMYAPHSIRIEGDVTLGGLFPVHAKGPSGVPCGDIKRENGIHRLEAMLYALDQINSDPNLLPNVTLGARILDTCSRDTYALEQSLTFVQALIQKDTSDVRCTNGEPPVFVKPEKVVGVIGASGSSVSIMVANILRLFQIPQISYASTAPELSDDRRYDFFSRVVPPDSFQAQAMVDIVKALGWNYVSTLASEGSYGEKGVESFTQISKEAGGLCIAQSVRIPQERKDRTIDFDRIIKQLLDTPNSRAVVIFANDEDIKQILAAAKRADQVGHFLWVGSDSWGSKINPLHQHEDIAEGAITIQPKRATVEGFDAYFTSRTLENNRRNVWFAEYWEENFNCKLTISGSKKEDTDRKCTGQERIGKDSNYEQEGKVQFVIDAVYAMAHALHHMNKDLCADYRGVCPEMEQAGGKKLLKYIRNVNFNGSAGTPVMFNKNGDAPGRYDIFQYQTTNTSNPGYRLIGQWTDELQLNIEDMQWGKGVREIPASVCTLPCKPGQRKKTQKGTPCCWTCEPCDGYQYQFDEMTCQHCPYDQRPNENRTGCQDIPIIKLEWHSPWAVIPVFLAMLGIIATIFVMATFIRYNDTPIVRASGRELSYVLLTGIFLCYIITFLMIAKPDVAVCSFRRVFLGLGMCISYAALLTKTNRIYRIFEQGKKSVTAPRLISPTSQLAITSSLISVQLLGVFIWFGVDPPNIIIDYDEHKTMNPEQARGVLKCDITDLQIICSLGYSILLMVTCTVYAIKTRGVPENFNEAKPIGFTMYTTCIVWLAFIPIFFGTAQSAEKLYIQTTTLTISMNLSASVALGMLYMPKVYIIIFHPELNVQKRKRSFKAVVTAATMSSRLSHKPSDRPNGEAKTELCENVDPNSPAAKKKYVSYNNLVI

CN1CCN(Cc2nc3ccc([N+](=O)[O-])cc3c(=O)n2-c2ccccc2F)CC1
active: IC50 [1] 0.74 µM | IC50 [2] 0.65 µM | IC50 [3] < 0.72 µM

CC(=O)c1cccc(NCc2cc(C(=O)N(C)C(C)c3ccccn3)no2)c1 (stereo not drawn)
active: IC50 [4] 6.77 µM | IC50 [5] 7.11 µM

CO[C@@H]1CN(C)C(=O)c2ccc(NC(=O)Nc3ccccc3F)cc2OC[C@@H](C)N(CCC(F)(F)F)C[C@H]1C
active: AC50 [6] 0.567 µM | AC50 [7] 6.04 µM | AC50 [8] 0.51 µM | AC50 [9] 1.92 µM | AC50 [10] 1.57 µM

C[S+](CC[C@H](N)C(=O)O)C[C@H]1O[C@@H](n2cnc3c(N)ncnc32)[C@H](O)[C@H]1O (stereo partly drawn)
inactive: IC50 [11] > 20 µM | IC50 [12] > 20 µM | IC50 [13] > 20 µM | IC50 [14] > 20 µM | IC50 [15] > 20 µM | IC50 [16] > 20 µM | IC50 [17] > 20 µM

COc1cc(CN2CCN(C(=O)/C=C/c3ccc(Br)cc3)CC2)cc(OC)c1
active: IC50 [18] 0.00364 µM

Cc1ccc(OCCn2cnc3ccccc32)cc1
active: AC50 [19] 38.9 µM

c1ccc(COc2ccc(OCCn3cnc4ccccc43)cc2)cc1
inactive: AC50 (cells) > 52 µM | AC50 [20] > 52 µM

COc1ccc(CSCC(=O)c2cc(C)n(-c3ccc(OC(F)F)cc3)c2C)cc1
active: EC50 [21] 10 µM

CC(C)(C)c1ccc(OCCn2cnc3ccccc32)cc1
active: AC50 (cells) 20.9 µM | AC50 [22] 15.9 µM | AC50 [23] 23.9 µM

CCCN(CC1CC1)c1nc(C)nc(Nc2c(Cl)cc(Cl)cc2Cl)c1Cl
active: EC50 [25] 1.39 µM | EC50 (Streptococcus) 15.2 µM | EC50 (Streptokinase A) 1.31 µM
inconclusive: AC50 [24] 14.1 µM | AC50 (Cytochrome P450 2C19 [26]) 31.6 µM | AC50 (Cytochrome P450 3A4 [27]) 15.8 µM | AC50 (Cytochrome P450 2C19 [28]) 7.94 µM | AC50 (Cytochrome P450 3A4 [29]) 12.6 µM
